Among the data in PubChem BioAssay AID624369 (Broad Institute, 2012) are AC35 and activity change, negative = inhibition values, retold here.

Records with an inconclusive call do not appear. Activity calls are given as the source filed them.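 How the source made its calls: active means fitted curve crosses a set inhibition level at a dose up to twice the top tested dose; inconclusive means flat curve with moderate inhibition, or an unreliable curve fit; inactive means the rest, including signal rising instead of falling.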

The subject of one assay is HEK293 LMP1 TES2 NF-kB luciferase reporter, 16 h. Put plainly: inhibitors of TNFa-stimulated NF-kB luciferase reporter, dose response, selectivity assay for EBV LMP1 NF-kB inhibitor project, HEK293 LMP1 reporter cells, dry powder, set 2 (AID 624369).
Settings: not given
As to `COc1ccccc1C#Cc1cnc2c(c1)C(=O)N([C@@H](C)CO)C[C@H](C)[C@@H](CN(C)C(=O)c1ccc3c(c1)OCO3)O2`, the AC35 is 27.9 µM.

Take `O=C(C[C@H]1C[C@H]2c3cc(NS(=O)(=O)c4ccc(F)cc4)ccc3O[C@H]2[C@H](CO)O1)NCc1ccc(Oc2ccccc2)cc1`: the AC35 was 9.13 µM.

On to `C[C@@H]1CN([C@@H](C)CO)S(=O)(=O)c2ccc(C#Cc3ccncc3)cc2O[C@H]1CN(C)C(=O)Nc1ccc2c(c1)OCO2`, for which the AC35 is 21.4 µM.

Turning to `CN(C)c1ccc2c(c1)[C@@H]1C[C@@H](CC(=O)NCc3ccc(Oc4ccccc4)cc3)O[C@H](CO)[C@@H]1O2`, the AC35 is 10.3 µM.

For the compound `O=C(C[C@@H]1C[C@H]2c3cc(NS(=O)(=O)c4ccc(F)cc4)ccc3O[C@H]2[C@@H](CO)O1)NCc1ccc(Oc2ccccc2)cc1`, the AC35 was 19.5 µM.

As for `CN(C)C(=O)c1cccc(-c2cccc(-c3nc(C(=O)NCc4ccccc4)cc4c3[C@@H](CCO)N([S@](=O)C(C)(C)C)C4)c2)c1`, the AC35 is 10.3 µM.

For the compound `O=C(C[C@H]1C[C@H]2c3cc(NC(=O)c4ccc5c(c4)OCO5)ccc3O[C@H]2[C@H](CO)O1)NCc1ccc(Oc2ccccc2)cc1`, the AC35 was 30 µM.

Consider `COc1ccccc1C#Cc1ccc([C@H]2[C@H](C#N)N(C(=O)C3CC3)[C@H]2CO)cc1`, for which the AC35 was 27 µM.

On to `O=C(C[C@@H]1C[C@@H]2c3cc(NS(=O)(=O)c4ccc(F)cc4)ccc3O[C@@H]2[C@@H](CO)O1)NCc1ccc(Oc2ccccc2)cc1`, for which the AC35 is 16.7 µM.

Take `O=C(C[C@@H]1C[C@@H]2c3cc(NC(=O)c4ccc5c(c4)OCO5)ccc3O[C@@H]2[C@@H](CO)O1)NCc1ccc(Oc2ccccc2)cc1`: the AC35 is 14.2 µM.

With `Cc1ccc(S(=O)(=O)N(C)C[C@H]2Oc3cc(C#Cc4ccncc4)ccc3S(=O)(=O)N([C@@H](C)CO)C[C@H]2C)cc1`, the AC35 was 16.4 µM.

In the case of `CC(=O)N(C)C[C@@H]1Oc2cc(C#Cc3ccc(F)cc3)ccc2S(=O)(=O)N([C@H](C)CO)C[C@H]1C`, the AC35 was 34 µM.

`COc1ccc(-c2cccc(-c3nc(C(=O)NCC(F)(F)F)cc4c3[C@H](CCO)N([S@@](=O)C(C)(C)C)C4)c2)cc1`: the AC35 is 28 µM.

On to `CC(C)NC(=O)N1Cc2cc(C(=O)NC3Cc4ccccc4C3)nc(-c3cccc(-c4cccnc4)c3)c2[C@@H]1CCO`, for which the AC35 was 18.5 µM.

As for `CC(C)(C)[S@@](=O)N1Cc2cc(C(=O)NCc3ccccc3F)nc(-c3cccc(-c4cccnc4)c3)c2[C@H]1CCO`, the AC35 was 12.7 µM.

As for `COc1cccc(-c2cccc(-c3nc(C(=O)NCC(F)(F)F)cc4c3[C@H](CCO)N([S@@](=O)C(C)(C)C)C4)c2)c1`, the AC35 is 5.24 µM.

As to `O=C(C[C@H]1C[C@@H]2c3cc(NS(=O)(=O)c4ccc(F)cc4)ccc3O[C@@H]2[C@@H](CO)O1)NCc1ccc(Oc2ccccc2)cc1`, the AC35 is 16.7 µM.

In the case of `O=C(C[C@H]1C[C@@H]2c3cc(NC(=O)c4ccc5c(c4)OCO5)ccc3O[C@@H]2[C@@H](CO)O1)NCc1ccc(Oc2ccccc2)cc1`, the AC35 is 24.6 µM.

With `COc1ccccc1C#Cc1ccc2c(c1)O[C@H](CN(C)Cc1cccnc1)[C@H](C)CN([C@H](C)CO)S2(=O)=O`, the AC35 is 20.7 µM.

Regarding `CN1C(=O)c2cc(NC(=O)Cc3cccs3)ccc2OC[C@@H]2O[C@H](CC(=O)NCc3ccc(-c4ccccc4)cc3)CC[C@H]21`, the AC35 was 33.6 µM.

With `C[C@@H](NC(=O)C[C@H]1C[C@@H]2c3cc(NC(=O)c4cccnc4)ccc3O[C@@H]2[C@@H](CO)O1)c1ccccc1`, the AC35 is > 35 µM (inactive).

On to `CN(C)C(=O)c1ccc(-c2cccc(-c3nc(C(=O)NCc4ccccc4)cc4c3[C@@H](CCO)N([S@](=O)C(C)(C)C)C4)c2)cc1`, for which the AC35 was 10.7 µM.

Take `C[C@H]1CN([C@@H](C)CO)S(=O)(=O)c2ccc(C#Cc3ccncc3)cc2O[C@H]1CN(C)C(=O)Nc1ccc2c(c1)OCO2`: the AC35 is 15.3 µM.

On to `CC(C)(C)[S@](=O)N1Cc2cc(C(=O)NCC(F)(F)F)nc(-c3cccc(-c4cccc(F)c4)c3)c2[C@@H]1CCO`, for which the AC35 is 8.65 µM.

Turning to `Cc1cc(C(=O)Nc2ccc3c(c2)C(=O)N(C)[C@H]2CC[C@@H](CC(=O)NCc4ccc(-c5ccccc5)cc4)O[C@H]2CO3)no1`, the AC35 was 13.5 µM.

Regarding `O=C(C[C@@H]1CC[C@@H]2[C@H](COC[C@@H](O)CN2Cc2ccc(Oc3ccccc3)cc2)O1)N1CCc2ccccc2C1`, the AC35 is 8.89 µM.

On to `N#C[C@@H]1[C@H](c2ccc(C#Cc3ccccc3F)cc2)[C@@H](CO)N1C(=O)c1cccnc1`, for which the AC35 is 2.04 µM.

For the compound `CC(C)(C)[S@@](=O)N1Cc2cc(C(=O)NCc3ccccn3)nc(-c3cccc(-c4ccccc4F)c3)c2[C@H]1CCO`, the AC35 was 26.1 µM.

For the compound `O=C(C[C@@H]1CC[C@@H]2[C@H](COC[C@@H](O)CN2Cc2ccc3c(c2)OCO3)O1)Nc1ccc(-c2ccccc2)cc1`, the AC35 is 11.2 µM.

Turning to `Cc1cc(C(=O)Nc2ccc3c(c2)C(=O)N(C)[C@@H]2CC[C@@H](CC(=O)NCc4ccc(-c5ccccc5)cc4)O[C@H]2CO3)no1`, the AC35 was 12.4 µM.

With `CN(C)c1ccc2c(c1)[C@@H]1C[C@H](CC(=O)NCc3ccc(Oc4ccccc4)cc3)O[C@@H](CO)[C@@H]1O2`, the AC35 is 21.7 µM.

Regarding `N#C[C@H]1[C@H](c2ccc(C#Cc3ccccc3F)cc2)[C@H](CO)N1C(=O)c1cccnc1`, the AC35 is 31.3 µM.

For `O=C(C[C@@H]1CC[C@@H]2[C@H](COC[C@H](O)CN2Cc2ccc3c(c2)OCO3)O1)Nc1ccc(-c2ccccc2)cc1`, the AC35 is 10.7 µM.

For `CN1C(=O)c2cc(NC(=O)c3ccc(C(F)(F)F)cc3)ccc2OC[C@@H]2O[C@@H](CC(=O)NC3Cc4ccccc4C3)CC[C@H]21`, the AC35 is 25.7 µM.

In the case of `N#C[C@H]1N[C@H](CO)[C@H]1c1ccc(C#Cc2ccccc2F)cc1`, the AC35 was < 0.26 µM.

In the case of `COc1ccc(S(=O)(=O)N(C)C[C@H]2Oc3ncc(/C=C/c4ccccc4)cc3C(=O)N([C@H](C)CO)C[C@@H]2C)cc1`, the AC35 was 21.9 µM.

With `COc1ccccc1C#Cc1ccc2c(c1)O[C@H](CN(C)Cc1cccnc1)[C@@H](C)CN([C@@H](C)CO)S2(=O)=O`, the AC35 is 26.6 µM.

`Cc1cc(C(=O)Nc2ccc3c(c2)C(=O)N(C)[C@@H]2CC[C@H](CC(=O)NCc4ccc(-c5ccccc5)cc4)O[C@@H]2CO3)no1`: the AC35 was 6.74 µM.

Test system in another assay: not listed separately
The assay is described as above. As to conditions: HEK293 LMP1 TES2 NF-kB luciferase reporter, 16 h; at 35 µM (top of the series).
Turning to `COc1cccc(C#Cc2ccc([C@@H]3[C@H](C#N)N(C(=O)c4ccccn4)[C@H]3CO)cc2)c1`, the activity change, negative = inhibition was -1.9% (inactive).

Turning to `Cc1noc(C)c1S(=O)(=O)Nc1ccc2c(c1)C(=O)N([C@@H](C)CO)C[C@@H](C)[C@@H](CN(C)Cc1ccc(C(F)(F)F)cc1)OCCCC[C@@H](C)O2`, the activity change, negative = inhibition was 30.6% (inactive).

For `C[C@@H](NC(=O)C[C@H]1C=C[C@@H](NC(=O)Cc2ccccn2)[C@@H](CO)O1)c1ccccc1`, the activity change, negative = inhibition is -2.43% (inactive).

With `O=C(Cc1ccccn1)NCC[C@H]1CC[C@@H](NC(=O)Nc2ccc(Cl)cc2)[C@@H](CO)O1`, the activity change, negative = inhibition was -6.43% (inactive).

On to `O=C(C[C@H]1C[C@@H]2c3cc(NS(=O)(=O)c4ccc(F)cc4)ccc3O[C@@H]2[C@H](CO)O1)NC1CCCCC1`, for which the activity change, negative = inhibition was -5.14% (inactive).

In the case of `C[C@@H](NC(=O)C[C@H]1C=C[C@H](NC(=O)Cc2ccccn2)[C@H](CO)O1)c1ccccc1`, the activity change, negative = inhibition was 3.96% (inactive).

As for `COC(=O)C[C@@H]1C[C@@H]2c3cc(NC(=O)CN(C)C)ccc3O[C@@H]2[C@@H](CO)O1`, the activity change, negative = inhibition was 4.43% (inactive).

For `CO[C@H](CN(C)S(=O)(=O)c1cccc(Cl)c1)[C@@H](C)CN([C@H](C)CO)S(=O)(=O)c1ccc(Cl)cc1`, the activity change, negative = inhibition was -1.32% (inactive).

For the compound `O=C(C[C@@H]1C[C@H]2c3cc(NS(=O)(=O)c4ccc(F)cc4)ccc3O[C@H]2[C@@H](CO)O1)NC1CCCCC1`, the activity change, negative = inhibition was -3.73% (inactive).

Turning to `C[C@H](NC(=O)C[C@H]1C=C[C@@H](NC(=O)Cc2ccccn2)[C@H](CO)O1)c1ccccc1`, the activity change, negative = inhibition is -0.458% (inactive).

Take `COC(=O)C[C@H]1C[C@H]2c3cc(NC(=O)CN(C)C)ccc3O[C@H]2[C@H](CO)O1`: the activity change, negative = inhibition was 4.38% (inactive).

As to `C[C@H](NC(=O)C[C@H]1C=C[C@H](NC(=O)Cc2ccccn2)[C@@H](CO)O1)c1ccccc1`, the activity change, negative = inhibition was -2.25% (inactive).

`O=C(Cc1ccccn1)NCC[C@H]1CC[C@H](NC(=O)Nc2ccc(Cl)cc2)[C@@H](CO)O1`: the activity change, negative = inhibition was -0.241% (inactive).

Take `COc1cccc(S(=O)(=O)N(C)C[C@@H]2Oc3cc(C4=CCCCC4)ccc3S(=O)(=O)N([C@@H](C)CO)C[C@@H]2C)c1`: the activity change, negative = inhibition is 17.7% (inactive).

Take `CO[C@H]1CN(C)C(=O)c2ccc(NC(=O)C3CC3)cc2OC[C@H](C)N(C(=O)c2ccccn2)C[C@H]1C`: the activity change, negative = inhibition is -5.44% (inactive).

For the compound `COc1cccc(S(=O)(=O)N(C)C[C@H]2Oc3cc(C4=CCCCC4)ccc3S(=O)(=O)N([C@@H](C)CO)C[C@@H]2C)c1`, the activity change, negative = inhibition was 12% (inactive).

Take `COc1cccc(S(=O)(=O)N(C)C[C@@H]2Oc3cc(C4=CCCCC4)ccc3S(=O)(=O)N([C@H](C)CO)C[C@H]2C)c1`: the activity change, negative = inhibition was -5.06% (inactive).

As for `O=C(Cc1ccccn1)NCC[C@@H]1CC[C@H](NC(=O)Nc2ccc(Cl)cc2)[C@@H](CO)O1`, the activity change, negative = inhibition was 0.116% (inactive).

As for `Cc1noc(C)c1S(=O)(=O)Nc1ccc2c(c1)C(=O)N([C@H](C)CO)C[C@H](C)[C@H](CN(C)Cc1ccc(C(F)(F)F)cc1)OCCCC[C@@H](C)O2`, the activity change, negative = inhibition was 62.1% (inactive).

With `C[C@H](NC(=O)C[C@H]1C=C[C@H](NC(=O)Cc2ccccn2)[C@H](CO)O1)c1ccccc1`, the activity change, negative = inhibition is 3.06% (inactive).

`C[C@@H](NC(=O)C[C@H]1C=C[C@@H](NC(=O)Cc2ccccn2)[C@H](CO)O1)c1ccccc1`: the activity change, negative = inhibition is -3.95% (inactive).

Regarding `C[C@@H]1CN([C@H](C)CO)C(=O)c2c(c3ccccc3n2C)-c2ccccc2CO[C@@H]1CN(C)C(=O)Nc1ccc(F)cc1`, the activity change, negative = inhibition is -1.47% (inactive).

`COc1ccccc1CNC(=O)C[C@H]1C[C@@H]2c3cc(NC(=O)CN(C)C)ccc3O[C@@H]2[C@@H](CO)O1`: the activity change, negative = inhibition was -0.186% (inactive).
